Measured values reported in patent US20180344680A1, “COMPOSITIONS AND METHODS FOR TREATMENT, AMELIORATION, AND PREVENTION OF DIABETES-RELATED SKIN ULCERS” (THE ARIZONA BOARD OF REGENTS ON BEHALF OF THE UNIVERSITY OF …, priority 2015, published 2018).

Tests used:
HaCaT cells [1] = assay: In vitro wounding assay (PDMS barrier) of keratinocyte migration; format: cell-based, human; conditions: HG HaCaT cells; 5 μmol/L SF or 20 μmol/L CA; up to 72 h
Method: (§1) Human immortalized keratinocytes HaCaT were obtained from the Arizona Cancer Center (see, e.g., Boukamp P, et al., J Cell Biol 106:761-771, 1988). Cells were grown in Dulbecco's modified Eagle's medium (DMEM) containing low glucose (LG, 5.5 mmol/L) and 10% fetal bovine serum (FBS) in an incubator at 37° C. with 5% CO2. For the experiments, the cells were starved in serum-free LG DMEM for 24 h, then either maintained in LG DMEM or switched to high glucose (HG, 25 mmol/L) DMEM for 2 days (see, e.g., Zheng H, et al., Diabetes 60:3055-3066, 2011; Lan C C, et al., Br J Dermatol 159:1103-1115, 2008). For the treatments, the cells were dosed with 5 μmol/L SF or 20 μmol/L CA.
siRNA transfections. HaCaT cells were transfected with either a non-specific, control small interfering RNA (Con-siRNA, #1027281, Qiagen, Valencia, Calif.) or an NRF2-specific siRNA (#S100657937) using the HiPerfect transfection reagent (Qiagen) according to the manufacturer's instructions. Briefly, cells were maintained in LG or HG DMEM for 2 days and then transfected with either control or NRF2 siRNA for migration, proliferation, and apoptosis experiments. For the ROS detection, cells were maintained in LG DMEM and transfected with either control or NRF2 siRNA; 24 h later, the cells were switched to HG DMEM and treated as indicated.
In vitro wounding assay. […]

8-oxo-dG = assay: Oxidative DNA damage (8-oxo-dG IHC) in wound skin tissues of STZ mice; format: in vivo, mouse
Excerpt: Diabetes mouse model and treatments. Nrf2^+/+ and Nrf2^-/- C57BL/6 mice were described previously (see, e.g., Jiang T, et al., Diabetes 59:850-860, 2010) and were housed and handled in accordance with the University of Arizona Institutional Animal Care policies. The STZ-induced diabetic model was previously described (see, e.g., Zheng H, et al., Diabetes 60:3055-3066, 2011) and only 8 week old male mice were included in this study. Briefly, three weeks after STZ injections, fasting glucose levels (FGL, 4 h fast) were measured using the AlphaTRAK system (Abbott Laboratory, North Chicago, Ill.) and mice with a FGL higher than or equal to 250 mg/dL were considered diabetic and included in the study (see, e.g., FIG. 2A and FIG. 3A for a detailed timeline). The mice (n=5-8) were then allocated randomly to each of the indicated treatment groups and received corn oil (control), 12.5 mg/kg SF or 50 mg/kg CA intraperitoneally every two days until skin tissues were harvested. One week after the treatments, the mice were anesthetized, their backs were shaved and cleaned. […] Gross wound closure was quantified by ImageJ software, and wound healing was expressed as the percentage of the original wound area that had healed. […] Morphology was assessed by hematoxylin and eosin (H&E) staining (Vector laboratory, Burlingame, Calif.). […]

HaCaT cells [2] = assay: Cell growth (xCELLigence) of HaCaT cells; format: cell-based, human; conditions: 5 μmol/L SF or 20 μmol/L CA, up to 72 h
Method: as §1
siRNA transfections. […]
Reactive oxygen species (ROS) measurement, cell proliferation and apoptosis. ROS were measured in HaCaT cells using DCF. […] Then, 48 h later, the cells were switched into fresh medium containing 10 μg/mL DCF, incubated 30 min, and fluorescence intensity was measured by flow cytometry. The rate of cell proliferation was measured by two methods (see, e.g., Ren D, et al., Proc Natl Acad Sci USA 108:1433-1438, 2011): 1) detection of Ki67 using indirect immunofluorescence as described previously (see, e.g., Lau A, et al., Mol Cell Biol 30:3275-3285, 2010); and 2) using the xCELLigence system (Roche). […]

NRF2 pathway = assay: Immunoblot and IHC of NRF2 and its target genes in wound skin tissues of STZ mice; format: in vivo, mouse; conditions: 12.5 mg/kg SF or 50 mg/kg CA i.p. every other day; for protein expression of NRF2 and its target genes HO-1, AKR1C1, and NQO1 (immunoblot): diabetic mouse skin tissue lysates; for NRF2 and HO-1 level by IHC: wound skin tissues of diabetic mice
Method: Diabetes mouse model and treatments. […] The STZ-induced diabetic model was previously described (see, e.g., Zheng H, et al., Diabetes 60:3055-3066, 2011) and only 8 week old male mice were included in this study. Briefly, three weeks after STZ injections, fasting glucose levels (FGL, 4 h fast) were measured using the AlphaTRAK system (Abbott Laboratory, North Chicago, Ill.) and mice with a FGL higher than or equal to 250 mg/dL were considered diabetic and included in the study (see, e.g., FIG. 2A and FIG. 3A for a detailed timeline). The mice (n=5-8) were then allocated randomly to each of the indicated treatment groups and received corn oil (control), 12.5 mg/kg SF or 50 mg/kg CA intraperitoneally every two days until skin tissues were harvested. One week after the treatments, the mice were anesthetized, their backs were shaved and cleaned. Two wounds were made with a sterile 6 mm skin biopsy punch (Health link, Jacksonville, Fla.) and covered with 3M Tegaderm pads. […] The tissues were collected using an 8 mm skin biopsy punch; one half was fixed in 10% buffered formalin and embedded in paraffin while the other half was used for protein extraction. […] Wounds and tissue collection were performed as described above.
Immunohistochemistry (IHC), immunoblot analyses, TGF-β1 immunoassay, and gelatin zymography. […] For IHC, antigen retrieval was performed by boiling in sodium citrate buffer (10 mM, pH 6.0) or EDTA buffer (1 mM, pH 8.0). After blocking endogenous peroxidase and non-specific binding, tissue sections were incubated with the indicated primary antibodies. Staining was performed using the Envision system HRP-DAB kit (DAKO North America, CA) according to the manufacturer's instructions.
For protein detection of mouse skin tissues were homogenized in lysis buffer (50 mM Tris-HCl buffer pH 7.4, 100 mM DTT, 2% SDS, 10% glycerol). Protein concentration was measured using Quant-iT Protein Assay (Invitrogen) and 150 μg of protein were resolved by SDS-PAGE and immunoblotting analyses with the indicated antibodies.
To explore the feasibility of pharmacologic activation of NRF2 in facilitating diabetic wound healing, sulforaphane (SF) and cinnamaldehyde (CA), two well-studied NRF2 activators, were tested for their ability to activate the NRF2-mediated antioxidant response in mouse skin tissues. After induction of diabetes using STZ, diabetic Nrf2^+/+ mice were intraperitoneally injected with corn oil (vehicle control), 12.5 mg/kg SF, or 50 mg/kg CA every other day for 1 week, then the wound surgery was performed and the treatment continued for 2 more weeks (FIG. 3A).

Structure (SMILES) | in vitro wound closure (cell migration) (HaCaT cells [1]) | oxidative DNA damage (8-oxo-dG) (8-oxo-dG) | inhibition of cell proliferation by HG (cell growth) (HaCaT cells [2]) | protein expression of NRF2 and its target genes HO-1, AKR1C1, and NQO1 (immunoblot) (NRF2 pathway) | NRF2 and HO-1 level by IHC (NRF2 pathway)
O=CC=Cc1ccccc1 [CA, Cinnamaldehyde] | significantly accelerated wound closure in HG cells | greatly alleviated the oxidative DNA damage | partly counteracted | upregulated | high level
C[S@@+]([O-])CCCCN=C=S [SF, L-sulforaphane] | significantly accelerated wound closure in HG cells | greatly alleviated the oxidative DNA damage | partly counteracted | upregulated | high level
